How the values were obtained:
[1] = tested on: 5′-AACCAAGTCTTGGTA-3′; assay: Association constants, recognition of 15 base pairs; settings: for Ka 5′-AACCAAGTCTTGGTA-3′: Table 7, C3-OH polyamides, match site; for Specificity 5′-AACCAACTGTTGGTA-3′: Table 7, center mismatch; for Specificity 5′-AACCAAGTCTTGCGA-3′: Table 7, edge mismatch; for Specificity Center mismatch: match vs 5′-AACCAACTGTTGGTA-3′; for Specificity Edge mismatch: match vs 5′-AACCAAGTCTTGCGA-3′
[2] = tested on: 5′-gcggtTGTCAacccg-3′; assay: Recognition of 9-11 base pairs (Table 9); format: binding; settings: 22° C. and pH 7.0
Source text: (§1) Table 9 illustrates recognition of recognition of 9-11 base pairs by ImPyPy-X-ImPyPy-β-Dp.

[3] = tested on: 5′-TGTCAAGACA-3′; assay: Recognition of 9-11 base pairs (Table 9); format: binding; settings: 22° C. and pH 7.0
Source text: as §1

[4] = tested on: 5′-TGTCAGACA-3′; assay: Recognition of 9-11 base pairs (Table 9); format: binding; settings: 22° C. and pH 7.0
Source text: as §1

[5] = tested on: 5′-TGTCAAAGACA-3′; assay: Recognition of 9-11 base pairs (Table 9); format: binding; settings: 22° C. and pH 7.0
Source text: as §1

[6] = tested on: 5 to 10 base pair sites based on a 5′-TGACA-3′ core sequence; assay: Footprint titration of three- to eight-ring polyamide dimers (Table 2); format: binding; settings: 22° C., pH 7.0; for association constant: mean of at least three footprint titrations
Source text: To determine the effect of polyamide length on binding site size, binding affinity, and sequence specificity, a series of six polyamides containing three to eight rings was synthesized. (Kelly, et al. Proc. Natl. Acad. Sci. U.S.A. 93, 6981-6985 (1996).) The series is based on ImPyPy-Dp with pyrrolecarboxamide moieties added sequentially to the C-termini to afford ImPyPyPy-Dp, ImPyPyPyPy-Dp, ImPyPyPyPyPy-Dp, ImPyPyPyPyPyPy-Dp, and ImPyPyPyPyPyPyPy-Dp which are designed to bind 5 to 10 base pair sites, respectively as side-by-side antiparallel dimers. DNA binding sites are based on a 5′-TGACA-3′ core sequence and contain sequential A,T inserts in the center of the binding site that will be recognized by the additional pyrrole carboxamides.

[7] = Table 5, ImPyPy-X-ImImPy-γ-PyPyPy-β-Dp, 24° C., pH 7.0
[8] = Table 6, ImImPy-γ-PyPyPy-X-ImPyPy-β-Dp

Cn1cc(NC(=O)c2cc(NC(=O)c3cc(NC(=O)CCCNC(=O)c4cc(NC(=O)c5nc(NC(=O)c6nc(NC(=O)CCCCCNC(=O)c7cc(NC(=O)c8cc(NC(=O)c9nccn9C)cn8C)cn7C)cn6C)cn5C)cn4C)cn3C)cn2C)cc1C(=O)NCCCO [ImPyPy-C6-ImImPy-γ-PyPyPy-C3—OH]
Ka 5′-AACCAAGTCTTGGTA-3′ [1]: 3 × 10^7
Specificity 5′-AACCAACTGTTGGTA-3′ [1]: 2
Specificity 5′-AACCAAGTCTTGCGA-3′ [1]: 2

CN(C)CCCNC(=O)CCNC(=O)c1cc(NC(=O)c2cc(NC(=O)c3cc(NC(=O)CCCNC(=O)c4cc(NC(=O)c5nc(NC(=O)c6nc(NC(=O)CCCCCNC(=O)c7cc(NC(=O)c8cc(NC(=O)c9nccn9C)cn8C)cn7C)cn6C)cn5C)cn4C)cn3C)cn2C)cn1C [ImPyPy-C6-ImImPy-γ-PyPyPy-β-Dp, ImPyPy-X-ImImPy-γ-PyPyPy-β-Dp]
Ka Match [1, 7]: 2e+08 M⁻¹
Specificity Center mismatch ([1]; Table 5): 12
Specificity Edge mismatch ([1]; Table 5): 15

CN(C)CCCNC(=O)CCNC(=O)c1cc(NC(=O)c2cc(NC(=O)c3cc(NC(=O)CCCNC(=O)c4cc(NC(=O)c5nc(NC(=O)c6nc(NC(=O)CCCNC(=O)c7cc(NC(=O)c8cc(NC(=O)c9nccn9C)cn8C)cn7C)cn6C)cn5C)cn4C)cn3C)cn2C)cn1C [ImPyPy-γ-ImImPy-γ-PyPyPy-β-Dp, ImPyPy-X-ImImPy-γ-PyPyPy-β-Dp]
Ka Match [1, 7]: 1e+07 M⁻¹
Specificity Center mismatch ([1]; Table 5): 1
Specificity Edge mismatch ([1]; Table 5): 1

CN(C)CCCNC(=O)CCNC(=O)c1cc(NC(=O)c2cc(NC(=O)c3nc(NC(=O)CCCNC(=O)c4cc(NC(=O)c5cc(NC(=O)c6nccn6C)cn5C)cn4C)cn3C)cn2C)cn1C [ImPyPy-γ-ImPyPy-β-Dp]
5′-gcggtTGTCAacccg-3′ [2]: 2 × 10^8
5′-TGTCAAGACA-3′ [3]: 1 × 10^8
5′-TGTCAGACA-3′ [4]: 5 × 10^7
5′-TGTCAAAGACA-3′ [5]: 1 × 10^8

CN(C)CCCNC(=O)CCNC(=O)c1cc(NC(=O)c2cc(NC(=O)c3nc(NC(=O)CCCCCNC(=O)c4cc(NC(=O)c5cc(NC(=O)c6cc(NC(=O)CCCNC(=O)c7cc(NC(=O)c8nc(NC(=O)c9nccn9C)cn8C)cn7C)cn6C)cn5C)cn4C)cn3C)cn2C)cn1C [ImImPy-γ-PyPyPy-C6-ImPyPy-β-Dp, ImImPy-γ-PyPyPy-X-ImPyPy-β-Dp]
Ka Match [1, 8]: 2e+08 M⁻¹
Specificity Center mismatch ([1]; Table 6): 1
Specificity Edge mismatch ([1]; Table 6): 2

CN(C)CCCNC(=O)CCNC(=O)c1cc(NC(=O)c2cc(NC(=O)c3nc(NC(=O)CCNC(=O)CCNC(=O)c4cc(NC(=O)c5cc(NC(=O)c6cc(NC(=O)CCCNC(=O)c7cc(NC(=O)c8nc(NC(=O)c9nccn9C)cn8C)cn7C)cn6C)cn5C)cn4C)cn3C)cn2C)cn1C [ImImPy-γ-PyPyPy-β-β-ImPyPy-β-Dp, ImImPy-γ-PyPyPy-X-ImPyPy-β-Dp]
Ka Match [1, 8]: 1e+10 M⁻¹
Specificity Center mismatch ([1]; Table 6): 1
Specificity Edge mismatch ([1]; Table 6): 1

CN(C)CCCNC(=O)CCNC(=O)c1cc(NC(=O)c2cc(NC(=O)c3cc(NC(=O)CCCNC(=O)c4cc(NC(=O)c5nc(NC(=O)c6nc(NC(=O)CCCCCCCNC(=O)c7cc(NC(=O)c8cc(NC(=O)c9nccn9C)cn8C)cn7C)cn6C)cn5C)cn4C)cn3C)cn2C)cn1C [ImPyPy-C8-ImImPy-γ-PyPyPy-β-Dp, ImPyPy-X-ImImPy-γ-PyPyPy-β-Dp]
Ka Match [1, 7]: 2e+08 M⁻¹
Specificity Center mismatch ([1]; Table 5): 10
Specificity Edge mismatch ([1]; Table 5): 10

CN(C)CCCNC(=O)CCNC(=O)c1cc(NC(=O)c2cc(NC(=O)c3cc(NC(=O)CCNC(=O)c4cc(NC(=O)c5cc(NC(=O)c6nccn6C)cn5C)cn4C)cn3C)cn2C)cn1C [ImPyPy-β-PyPyPy-β-Dp]
5′-gcggtTGTCAacccg-3′ [2]: 3 × 10^7
5′-TGTCAAGACA-3′ [3]: 5 × 10^7
5′-TGTCAGACA-3′ [4]: 2 × 10^8
5′-TGTCAAAGACA-3′ [5]: 5 × 10^7

Cn1cc(NC(=O)c2cc(NC(=O)c3cc(NC(=O)CCCNC(=O)c4cc(NC(=O)c5nc(NC(=O)c6nc(NC(=O)CCCCNC(=O)c7cc(NC(=O)c8cc(NC(=O)c9nccn9C)cn8C)cn7C)cn6C)cn5C)cn4C)cn3C)cn2C)cc1C(=O)NCCCO [ImPyPy-C5-ImImPy-γ-PyPyPy-C3—OH]
Ka 5′-AACCAAGTCTTGGTA-3′ [1]: 3 × 10^7
Specificity 5′-AACCAACTGTTGGTA-3′ [1]: >3
Specificity 5′-AACCAAGTCTTGCGA-3′ [1]: >3

CN(C)CCCNC(=O)CCNC(=O)c1cc(NC(=O)c2cc(NC(=O)c3cc(NC(=O)CCCNC(=O)c4cc(NC(=O)c5nc(NC(=O)c6nc(NC(=O)CCCCNC(=O)c7cc(NC(=O)c8cc(NC(=O)c9nccn9C)cn8C)cn7C)cn6C)cn5C)cn4C)cn3C)cn2C)cn1C [ImPyPy-C5-ImImPy-γ-PyPyPy-β-Dp, ImPyPy-X-ImImPy-γ-PyPyPy-β-Dp]
Ka Match [1, 7]: 4e+08 M⁻¹
Specificity Center mismatch ([1]; Table 5): 11
Specificity Edge mismatch ([1]; Table 5): 19

CN(C)CCCNC(=O)CCNC(=O)c1cc(NC(=O)c2cc(NC(=O)c3nc(NC(=O)CCCCNC(=O)c4cc(NC(=O)c5cc(NC(=O)c6nccn6C)cn5C)cn4C)cn3C)cn2C)cn1C [ImPyPy-C5-ImPyPy-β-Dp]
5′-gcggtTGTCAacccg-3′ [2]: 1 × 10^9
5′-TGTCAAGACA-3′ [3]: 1 × 10^9
5′-TGTCAGACA-3′ [4]: 2 × 10^8
5′-TGTCAAAGACA-3′ [5]: 1 × 10^9

ImPyPyPyPyPy-Dp
specificity (ratio of match site affinity to affinity of the single base pair mismatch site) [6]: 2.7-fold
association constant [6]: 5.3e+07 M⁻¹

CN(C)CCCNC(=O)c1cc(NC(=O)c2cc(NC(=O)c3cc(NC(=O)c4cc(NC(=O)c5cc(NC(=O)c6cc(NC(=O)c7nccn7C)cn6C)cn5C)cn4C)cn3C)cn2C)cn1C [ImPyPyPyPyPyPy-Dp]
specificity (ratio of match site affinity to affinity of the single base pair mismatch site) [6]: 2.8-fold
association constant [6]: 4.7e+07 M⁻¹

CN(C)CCCNC(=O)c1cc(NC(=O)c2cc(NC(=O)c3cc(NC(=O)c4nccn4C)cn3C)cn2C)cn1C [ImPyPyPy-Dp]
specificity (ratio of match site affinity to affinity of the single base pair mismatch site) [6]: 5.3-fold
association constant [6]: 8.5e+06 M⁻¹

CN(C)CCCNC(=O)CCNC(=O)c1cc(NC(=O)c2cc(NC(=O)c3cc(NC(=O)CCCNC(=O)c4cc(NC(=O)c5nc(NC(=O)c6nc(NC(=O)CCCCCCNC(=O)c7cc(NC(=O)c8cc(NC(=O)c9nccn9C)cn8C)cn7C)cn6C)cn5C)cn4C)cn3C)cn2C)cn1C [ImPyPy-C7-ImImPy-γ-PyPyPy-β-Dp, ImPyPy-X-ImImPy-γ-PyPyPy-β-Dp]
Ka Match [1, 7]: 2e+08 M⁻¹
Specificity Center mismatch ([1]; Table 5): 2
Specificity Edge mismatch ([1]; Table 5): 2

CN(C)CCCNC(=O)c1cc(NC(=O)c2cc(NC(=O)c3nccn3C)cn2C)cn1C [ImPyPy-Dp]
specificity (ratio of match site affinity to affinity of the single base pair mismatch site) [6]: 6.5-fold
association constant [6]: 130000 M⁻¹

CN(C)CCCNC(=O)CCNC(=O)c1cc(NC(=O)c2cc(NC(=O)c3cc(NC(=O)CCCNC(=O)c4cc(NC(=O)c5nc(NC(=O)c6nc(NC(=O)CCNC(=O)CCNC(=O)c7cc(NC(=O)c8cc(NC(=O)c9nccn9C)cn8C)cn7C)cn6C)cn5C)cn4C)cn3C)cn2C)cn1C [ImPyPy-β-β-ImImPy-γ-PyPyPy-β-Dp, ImPyPy-X-ImImPy-γ-PyPyPy-β-Dp]
Ka Match [1, 7]: 3e+08 M⁻¹
Specificity Center mismatch ([1]; Table 5): 2
Specificity Edge mismatch ([1]; Table 5): 2

CN(C)CCCNC(=O)CCNC(=O)c1cc(NC(=O)c2cc(NC(=O)c3nc(NC(=O)CCCCNC(=O)c4cc(NC(=O)c5cc(NC(=O)c6cc(NC(=O)CCCNC(=O)c7cc(NC(=O)c8nc(NC(=O)c9nccn9C)cn8C)cn7C)cn6C)cn5C)cn4C)cn3C)cn2C)cn1C [ImImPy-γ-PyPyPy-C5-ImPyPy-β-Dp, ImImPy-γ-PyPyPy-X-ImPyPy-β-Dp]
Ka Match [1, 8]: 1e+09 M⁻¹
Specificity Center mismatch ([1]; Table 6): 2
Specificity Edge mismatch ([1]; Table 6): 2

Cn1cc(NC(=O)c2cc(NC(=O)c3cc(NC(=O)CCCNC(=O)c4cc(NC(=O)c5nc(NC(=O)c6nc(NC(=O)CCNC(=O)CCNC(=O)c7cc(NC(=O)c8cc(NC(=O)c9nccn9C)cn8C)cn7C)cn6C)cn5C)cn4C)cn3C)cn2C)cc1C(=O)NCCCO [ImPyPy-β-β-ImImPy-γ-PyPyPy-C3—OH]
Ka 5′-AACCAAGTCTTGGTA-3′ [1]: 1 × 10^8
Specificity 5′-AACCAACTGTTGGTA-3′ [1]: 3
Specificity 5′-AACCAAGTCTTGCGA-3′ [1]: 3

ImPyPyPyPy-Dp
specificity (ratio of match site affinity to affinity of the single base pair mismatch site) [6]: 5.7-fold
association constant [6]: 4.5e+07 M⁻¹

CN(C)CCCNC(=O)CCNC(=O)c1cc(NC(=O)c2cc(NC(=O)c3cc(NC(=O)CCCNC(=O)c4cc(NC(=O)c5nc(NC(=O)c6nc(NC(=O)CCCCNC(=O)CCNC(=O)c7cc(NC(=O)c8cc(NC(=O)c9nccn9C)cn8C)cn7C)cn6C)cn5C)cn4C)cn3C)cn2C)cn1C [ImPyPy-β-C5-ImImPy-γ-PyPyPy-β-Dp, ImPyPy-X-ImImPy-γ-PyPyPy-β-Dp]
Ka Match [1, 7]: 1e+08 M⁻¹
Specificity Center mismatch ([1]; Table 5): 2
Specificity Edge mismatch ([1]; Table 5): 2

CN(C)CCCNC(=O)CCNC(=O)c1cc(NC(=O)c2cc(NC(=O)c3nc(NC(=O)CCCCCCNC(=O)c4cc(NC(=O)c5cc(NC(=O)c6cc(NC(=O)CCCNC(=O)c7cc(NC(=O)c8nc(NC(=O)c9nccn9C)cn8C)cn7C)cn6C)cn5C)cn4C)cn3C)cn2C)cn1C [ImImPy-γ-PyPyPy-C7-ImPyPy-β-Dp, ImImPy-γ-PyPyPy-X-ImPyPy-β-Dp]
Ka Match [1, 8]: 1e+09 M⁻¹
Specificity Center mismatch ([1]; Table 6): 1
Specificity Edge mismatch ([1]; Table 6): 1

ImPyPyPyPyPyPyPy-Dp
specificity (ratio of match site affinity to affinity of the single base pair mismatch site) [6]: 1-fold
association constant [6]: <2e+07 M⁻¹
